{"source": "patent US8980587B2", "about": "“Process for producing reveromycin A or a synthetic intermediate thereof, process for producing compounds containing a spiroketal ring and novel antineoplastics, fungicides and therapeutic agents for bone disorders” (RIKEN, priority 2010, dated 2015)", "key": {"[1]": {"test_system": "HL-60 cells (human acute promyelocytic leukemia cell line)", "test": "Growth-inhibiting activity against animal cells (WST-8), HL-60", "format": "cell-based", "conditions": "for IC50: Homo sapiens, read-out: HL60 IC50; for cancer cell growth-inhibiting activity (in words): summary of Table 5 (HL60, K562, tsFT210), RM-T as compared with RM-A", "method": "(§1) HL-60 cells (human acute promyelocytic leukemia cell line) and K562 cells (human chronic myeloid leukemia cell line) were maintained in a culture medium in which RPMI1640 medium (manufactured by Invitrogen) was added with 10% fetal bovine serum (manufactured by Nichirei), 0.5% penicillin/streptomycin solution (manufactured by Invitrogen) at 37° C. under a humidified culture of 5% CO2. tsFT210 cells (mouse breast cancer cells CDC2 temperature sensitive strain) were maintained in a culture medium in which RPMI1640 medium (manufactured by Invitrogen) was added with 5% calf serum (manufactured by Hyclone) and 0.5% penicillin/streptomycin solution at 32° C. under a humidified culture of 5% CO2.\n(§2) HL-60 cells and K562 cells were seeded in a 96-well plate (manufactured by IWAKI) so as to be 1.5×10^4 cells/well/100 μl. tsFT210 cells were seeded in a 96-well plate so as to be 1.6×10^4 cell/well/100 μl. Each of the agents in Table 5 was added at 0.5% (v/v). HL-60 cells and K562 cells were maintained at 37° C. under a humidified culture of 5% CO2 and tsFT210 cells were maintain at 32° C. under a humidified culture of 5% CO2. Forty eight hours after addition of the agent, 10 μl of a reagent SF solution for counting live cells (WST-8 reagent, manufactured by Nakarai tesque) was added to each well. HL-60 cells and K562 cells were maintained at 37° C. under a humidified culture of 5% CO2 for 30 minutes and tsFT210 cells were maintain at 32° C. under a humidified culture of 5% CO2 for one hour. After the reaction, absorbance at 450 nm was measured using a microplate reader (manufactured by PerkinElmer) and a cell proliferation rate was determined from the measurement value."}, "[2]": {"test_system": "K562 cells (human chronic myeloid leukemia cell line)", "test": "Growth-inhibiting activity against animal cells (WST-8), K562", "format": "cell-based", "method": "as §1, §2"}, "[3]": {"test_system": "tsFT210 cells (mouse breast cancer cells CDC2 temperature sensitive strain)", "test": "Growth-inhibiting activity against animal cells (WST-8), tsFT210", "format": "cell-based", "method": "as §1, §2"}, "[4]": {"test_system": "Escherichia coli (HO141 strain)", "test": "Growth-inhibiting activity against Escherichia coli", "format": "cell-based", "conditions": "6 hours, absorbance at 600 nm, read-out: E. coli IC50", "method": "Escherichia coli (HO141 strain) was precultured in culture medium of 0.5% Polypeptone, 0.5% Meat Extract, 0.3% NaCl, and 0.001% Sodium Dodecyl Sulfate (SDS) at 37° C. Absorbance at 600 nm was measured, and Escherichia coli solution was prepared such that the absorbance is 0.005 and seeded 100 μl each in a 96-well plate. Each of the agents in Table 5 was added at 0.5% (v/v) and maintained at 37° C. Six hours after addition of the agent, absorbance at 600 nm was measured using a microplate reader (manufactured by PerkinElmer) and a proliferation rate was determined from the measurement value."}, "[5]": {"test_system": "Budding yeast (MLC30M strain)", "test": "Growth-inhibiting activity against yeast", "format": "cell-based", "conditions": "for IC50: Saccharomyces cerevisiae, read-out: Yeast IC50", "method": "Budding yeast (MLC30M strain) was precultured in a culture medium of 2% Polypeptone, 1% yeast extract, 2% glucose, 0.02% adenine, and 0.001% sodium dodecyl sulfate (SDS) at 30° C. Absorbance at 600 nm was measured, and yeast solution was prepared such that the absorbance is 0.05 and seeded 100 μl each in a 96-well plate. Each of the agents in Table 5 was added at 0.5% (v/v) and maintained at 30° C. Eighteen hours after addition of the agent, absorbance at 600 nm was measured using a microplate reader (manufactured by PerkinElmer) and a proliferation rate was determined from the measurement value."}, "osteoclasts": {"test_system": "osteoclasts", "test": "Growth inhibitory activity against osteoclast (TRAP positive multinucleated cell count)", "format": "cell-based, mouse", "conditions": "for IC50: Osteoclast, read-out: OC IC50", "method": "Bone marrow cells were harvested from thigh bone and shin bone of five-week male ddY mouse (manufactured by Japan SLC, Inc.), seeded in a type I collagen coated plate (manufactured by IWAKI) in a culture medium in which α-MEM medium (manufactured by Sigma-Aldrich) was added with 10% fetal bovine serum, 0.5% penicillin/streptomycin solution, 50 ng/ml human M-CSF (Leukoprol, manufactured by Kyowa Hakko), and 1 ng/ml human TGF-β1 (manufactured by R&D Systems), and maintained at 37° C. under a humidified culture of 5% CO2 for 3 days. Cells were then washed twice with PBS and then cells adhered on the plate were used as bone marrow macrophage cells. Bone marrow macrophage cells were further maintained in a culture medium in which α-MEM medium was added with 10% fetal-bovine serum, 0.5% penicillin/streptomycin solution, 50 ng/ml human M-CSF, 50 ng/ml human soluble RANKL (manufactured by Peprotech) at 37° C. under a humidified culture of 5% CO2 for 3 days to differentiate into osteoclasts.\nEach of the agents in Table 5 was added to osteoclasts at 0.5% (v/v) and maintained at 37° C. under a humidified culture of 5% CO2 for 24 hours. Subsequently, cells were treated with PBS solution containing 3.7% formalin at room temperature for 30 minutes. After the solution was removed, the cells were further treated with acetone/ethanol solution (1:1 vol/vol) at room temperature for one minute and the solution was removed to dry the cells. Immobilized cells were subjected to a reaction in TRAP solution [50 mM sodium tartrate, 90 mM sodium acetate, 0.01% naphthol AS-MX phosphate (manufactured by Sigma), 0.05% fast red violet LB salt (manufactured by Sigma), pH 5.0] at room temperature for 30 minutes and then washed with distilled water. The number of TRAP positive multinucleated osteoclasts was counted and a rate of survival was determined."}, "[6]": {"conditions": "K562, 48 h, read-out: K562 IC50"}, "[7]": {"conditions": "tsFT210, 48 h, read-out: tsFT210 IC50"}}, "note": "Where two headings read alike, the source gives them in different places.", "data": [{"smiles": "CCCCCC[C@@]1(OC(=O)CCC(=O)O)CC[C@]2(CC[C@H](C)[C@@H](C/C=C(C)/C=C/[C@H](O)[C@@H](C)/C=C/C(=O)O)O2)O[C@H]1/C=C/C(C)=C/C(=O)O", "note": "[RM-E]", "values": [{"measurement": "IC50", "setting": "[1]; HL-60, 48 h", "value": 1.5, "unit": "µg/mL"}, {"measurement": "cancer cell growth-inhibiting activity (in words)", "setting": "[1]", "value": "high"}, {"measurement": "IC50", "setting": "[2]; [6]", "value": 1.9, "unit": "µg/mL"}, {"measurement": "IC50", "setting": "[3]; [7]", "value": 7, "unit": "µg/mL"}, {"measurement": "IC50", "setting": "[4]", "value": "> 50", "unit": "µg/mL"}, {"measurement": "IC50", "setting": "[5]; 18 h", "value": 2.3, "unit": "µg/mL"}, {"measurement": "IC50", "setting": "osteoclasts; Mus musculus, 24 h", "value": 0.1, "unit": "µg/mL"}, {"measurement": "growth inhibiting actions against osteoclast (in words)", "setting": "osteoclasts; summary of Table 5", "value": "exhibited growth inhibiting actions against osteoclast"}]}, {"smiles": "CCCC[C@@]1(OC(=O)CCC(=O)O)CC[C@]2(CC[C@H](C)[C@@H](C/C=C(C)/C=C/[C@H](O)[C@@H](C)/C=C/C(=O)O)O2)O[C@H]1/C=C/C(C)=C/C(=O)O", "note": "[RM-A, Reveromycin A]", "values": [{"measurement": "IC50", "setting": "[1]; HL-60, 48 h", "value": 2.7, "unit": "µg/mL"}, {"measurement": "IC50", "setting": "[2]; [6]", "value": 4.9, "unit": "µg/mL"}, {"measurement": "IC50", "setting": "[3]; [7]", "value": 8.5, "unit": "µg/mL"}, {"measurement": "IC50", "setting": "[4]", "value": "> 50", "unit": "µg/mL"}, {"measurement": "IC50", "setting": "[5]; 18 h", "value": 4.3, "unit": "µg/mL"}, {"measurement": "IC50", "setting": "osteoclasts; Mus musculus, 24 h", "value": 0.06, "unit": "µg/mL"}]}, {"smiles": "CCCCC1CCC2(CCC(C)C(C/C=C(C)/C=C/C(O)C(C)/C=C/C(=O)O)O2)OC1/C=C/C(C)=C/C(=O)O", "note": "(centres unmarked) [RM-T]", "values": [{"measurement": "IC50", "setting": "[1]; HL-60, 48 h", "value": 0.2, "unit": "µg/mL"}, {"measurement": "cancer cell growth-inhibiting activity (in words)", "setting": "[1]", "value": "higher"}, {"measurement": "IC50", "setting": "[2]; [6]", "value": 0.7, "unit": "µg/mL"}, {"measurement": "IC50", "setting": "[3]; [7]", "value": 0.4, "unit": "µg/mL"}, {"measurement": "IC50", "setting": "[4]", "value": "> 50", "unit": "µg/mL"}, {"measurement": "IC50", "setting": "[5]; 18 h", "value": 0.05, "unit": "µg/mL"}, {"measurement": "growth-inhibiting activity against yeast (in words)", "setting": "[5]; summary of Table 5", "value": "exhibited growth-inhibiting activity against yeast"}, {"measurement": "IC50", "setting": "osteoclasts; Mus musculus, 24 h", "value": 6.2, "unit": "µg/mL"}]}, {"smiles": "CCCC[C@H]1CC[C@]2(CC[C@H](C)[C@@H](C/C=C(C)/C=C/[C@H](O)[C@@H](C)/C=C/C(=O)OCC)O2)O[C@H]1/C=C/C(C)=C/C(=O)O", "note": "[RM-T ethyl-ester]", "values": [{"measurement": "IC50", "setting": "[1]; HL-60 cells, 48 hours after addition of the agent, WST-8", "value": 0.2, "unit": "µg/mL"}, {"measurement": "cancer cell growth-inhibiting activity (in words)", "setting": "[1]", "value": "high"}, {"measurement": "IC50", "setting": "[2]; K562 cells, 48 hours after addition of the agent, WST-8, read-out: K562 IC50", "value": 0.7, "unit": "µg/mL"}, {"measurement": "IC50", "setting": "[3]; tsFT210 cells, 32° C., 48 hours after addition of the agent, WST-8, read-out: tsFT210 IC50", "value": 11.4, "unit": "µg/mL"}, {"measurement": "IC50", "setting": "[4]", "value": "> 50", "unit": "µg/mL"}, {"measurement": "IC50", "setting": "[5]; MLC30M strain, 18 hours, absorbance at 600 nm", "value": "> 50", "unit": "µg/mL"}, {"measurement": "IC50", "setting": "osteoclasts; mouse bone marrow derived osteoclasts, 24 hours, rate of survival", "value": 6, "unit": "µg/mL"}]}]}
